The first experiment has as its target T1, human P2X3 receptor (Homo sapiens, UniProt P56373).
T1 construct: expressed in transfected cells; host or cells: CHO-K1
T1 sequence (P56373 1-397): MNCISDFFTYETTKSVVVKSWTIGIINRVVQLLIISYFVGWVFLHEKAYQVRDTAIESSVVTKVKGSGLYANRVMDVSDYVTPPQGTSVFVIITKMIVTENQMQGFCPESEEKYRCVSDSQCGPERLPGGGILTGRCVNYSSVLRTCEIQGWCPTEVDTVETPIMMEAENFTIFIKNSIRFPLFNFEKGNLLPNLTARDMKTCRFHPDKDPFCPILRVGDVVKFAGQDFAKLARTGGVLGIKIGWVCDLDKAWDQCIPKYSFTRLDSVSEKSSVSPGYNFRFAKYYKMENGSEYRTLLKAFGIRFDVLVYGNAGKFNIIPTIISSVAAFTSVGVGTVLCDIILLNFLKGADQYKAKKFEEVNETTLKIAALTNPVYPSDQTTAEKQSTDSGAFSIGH
The experiment is described as follows: Calcium luminescence (photoprotein) assay in CHO-K1 cells co-expressing human P2X3 receptor, α,β-Met-ATP stimulation, FLEXSTATION readout. In kind it is cell-based. The settings on record: Table 6; human P2X3 receptor antagonist activity, CHO-K1 cells, α,β-Met-ATP; read-out: h-P2X3 IC50. An outline of the steps:
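CHO-K1 cells co-expressing human P2X3 and a Ca2+-sensitive photoprotein, loaded with coelenterazine in Tyrode's buffer (pH 7.4) for 4 h at 37 °C. Compounds injected 4 min before α,β-Met-ATP stimulation; luminescence recorded, IC50 and pseudo-Hill slope from nonlinear regression of inhibition curves.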
On to `O=C1N2CC(C3CCCCC3)N=C2c2ncc(N3CCOCC3)cc2N1Cc1ccc(Cl)cc1` (centres unmarked) [Example 25, 6-(4-chlorobenzyl)-2-cyclohexyl-8-(morpholin-4-yl)-2,6-dihydroimidazo[1,2-c]pyrido[2,3-e]pyrimidin-5(3H)-one], for which the IC50 turned out to be 389 nM.

Consider `COc1cc(CN2C(=O)N3C(=NCC3C3CCCCC3)c3ncc(N4CCOCC4)cc32)cc(OC)c1` (centres unmarked) [Example 44, 3-cyclohexyl-6-(3,5-dimethoxybenzyl)-8-(morpholin-4-yl)-2,6-dihydroimidazo[1,2-c]pyrido[2,3-e]pyrimidin-5(3H)-one], for which the IC50 was 491 nM.

As for `COc1cc(CN2C(=O)N3CCN=C3c3ncc(N4CCOCC4)cc32)cc(OC)c1` [Example 7, 6-(3,5-dimethoxybenzyl)-8-(morpholin-4-yl)-2,6-dihydroimidazo[1,2-c]pyrido[2,3-e]pyrimidin-5(3H)-one], the IC50 came to 1640 nM.

As to `CC(C)CC1CN2C(=O)N(Cc3ccc(Cl)cc3)c3cc(N4CCOCC4)cnc3C2=N1` (centres unmarked) [Example 30, 6-(4-chlorobenzyl)-2-(2-methylpropyl)-8-(morpholin-4-y1)-2,6-dihydroimidazo[1,2-c]pyrido[2,3-e]pyrimidin-5(3H)-one], the half-inhibitory concentration (IC50) is 350 nM.

As to `O=C(C1CN=C2c3ncc(N4CCOCC4)cc3N(Cc3ccc(Cl)cc3)C(=O)N21)N1CCOCC1` (centres unmarked) [Example 55, 6-(4-chlorobenzyl)-8-(morpholin-4-y1)-3-(morpholin-4-ylcarbonyl)-2,6-dihydroimidazo[1,2-c]pyrido[2,3-e]pyrimidin-5(3H)-one], the IC50 was 2440 nM.

In the case of `COc1cc(CN2C(=O)N3CC(c4ccccc4)N=C3c3ncc(N4CCOCC4)cc32)cc(OC)c1` (centres unmarked) [Example 46, 6-(3,5-dimethoxybenzyl)-8-(morpholin-4-yl)-2-phenyl-2,6-dihydroimidazo[1,2-c]pyrido[2,3-e]pyrimidin-5(3H)-one], the IC50 came to 127 nM.

For the compound `CC(C)CC1C(=O)N=C2c3ncc(N4CCOCC4)cc3N(Cc3ccc(Cl)cc3)C(=O)N21` (centres unmarked) [Example 64, 6-(4-chlorobenzyl)-3-(2-methylpropyl)-8-(morpholin-4-yl)imidazo[1,2-c]pyrido[2,3-e]pyrimidine-2,5(3H,6H)-dione], the IC50 worked out at 109 nM.

With `COc1ccc(CN2C(=O)N3CC(COC(C)(C)C)N=C3c3ncc(N4CCOCC4)cc32)cc1` (centres unmarked) [Example 57, 2-(tert-butoxymethyl)-6-(4-methoxybenzyl)-8-(morpholin-4-yl)-2,6-dihydroimidazo[1,2-c]pyrido[2,3-e]pyrimidin-5(3H)-one], the IC50 turned out to be 3280 nM.

Consider `COc1ccc(CN2C(=O)N3CC(C4CCCCC4)N=C3c3ncc(N4CCOCC4)cc32)cc1` (centres unmarked) [Example 23, 2-cyclohexyl-6-(4-methoxybenzyl)-8-(morpholin-4-yl)-2,6-dihydroimidazo[1,2-c]pyrido[2,3-e]pyrimidin-5(3H)-one], for which the IC50 worked out at 506 nM.

Regarding `O=C1N2CC(C3CC3)N=C2c2ncc(N3CCOCC3)cc2N1Cc1ccc(Cl)cc1` (centres unmarked) [Example 10, 6-(4-chlorobenzyl)-2-cyclopropyl-8-(morpholin-4-yl)-2,6-dihydroimidazo[1,2-c]pyrido[2,3-e]pyrimidin-5(3H)-one], the IC50 came out at 241 nM.

For `COc1cc(CN2C(=O)N3C(=NCC3c3ccccc3)c3ncc(N4CCOCC4)cc32)cc(OC)c1` (centres unmarked) [Example 47, 6-(3,5-dimethoxybenzyl)-8-(morpholin-4-yl)-3-phenyl-2,6-dihydroimidazo[1,2-c]pyrido[2,3-e]pyrimidin-5(3H)-one], the IC50 was 199 nM.

Staying with this experiment, now noted: Table 7; human P2X3 receptor antagonist activity, CHO-K1 cells, α,β-Met-ATP; read-out: h-P2X3 IC50.
Turning to `CC(C)Cc1nnc2c3ncc(N4CCOCC4)cc3n(Cc3ccc(Cl)cc3)c(=O)n12` [Example 108, 6-(4-chlorobenzyl)-3-(2-methylpropyl)-8-(morpholin-4-yl)pyrido[2,3-e][1,2,4]triazolo[4,3-c]pyrimidin-5(6H)-one], the IC50 is 175 nM.

With `COc1cc(Cn2c(=O)n3c(C)nnc3c3ncc(N4CCOCC4)cc32)cc(OC)c1` [Example 101, 6-(3,5-dimethoxybenzyl)-3-methyl-8-(morpholin-4-yl)pyrido[2,3-e][1,2,4]triazolo[4,3-c]pyrimidin-5(6H)-one], the IC50 amounted to 2440 nM.

Take `COc1cc(Cn2c(=O)n3c(C)c(C)nc3c3ncc(N4CC5(COC5)C4)cc32)cc(OC)c1` [Example 81, 6-(3,5-dimethoxybenzyl)-2,3-dimethyl-8-(2-oxa-6-azaspiro[3.3]heptan-6-yl)imidazo[1,2-c]pyrido[2,3-e]pyrimidin-5(6H)-one]: the IC50 is 269 nM.

As for `COc1cc(Cn2c(=O)n3c(C)c(C(C)C)nc3c3ncc(N4CCOCC4)cc32)cc(OC)c1` [Example 79, 6-(3,5-dimethoxybenzyl)-3-methyl-8-(morpholin-4-yl)-2-(propan-2-yl)imidazo[1,2-c]pyrido[2,3-e]pyrimidin-5(6H)-one], the IC50 turned out to be 53.7 nM.

As for `Cc1noc(C)c1-c1nnc2c3ncc(N4CCOCC4)cc3n(Cc3ccc(Cl)cc3)c(=O)n12` [Example 110, 6-(4-chlorobenzyl)-3-(3,5-dimethyl-1,2-oxazol-4-yl)-8-(morpholin-4-yl)pyrido[2,3-e][1,2,4]triazolo[4,3-c]pyrimidin-5(6H)-one], the IC50 came to 257 nM.

For the compound `COc1cc(Cn2c(=O)n3c(C)c(C)nc3c3ncc(N4CCC(OC)CC4)cc32)cc(OC)c1` [Example 85, 6-(3,5-dimethoxybenzyl)-8-(4-methoxypiperidin-1-yl)-2,3-dimethylimidazo[1,2-c]pyrido[2,3-e]pyrimidin-5(6H)-one], the IC50 came out at 1300 nM.

Consider `COc1cc(Cn2c(=O)n3c(C)c(C)nc3c3ncc(NCC4COC4)cc32)cc(OC)c1` [Example 70, 6-(3,5-dimethoxybenzyl)-2,3-dimethyl-8-{[(oxetan-3-yl)methyl]amino}imidazo[1,2-c]pyrido[2,3-e]pyrimidin-5(6H)-one], for which the IC50 stood at 139 nM.

Staying with this experiment, now noted: Table 8; human P2X3 receptor antagonist activity, CHO-K1 cells, α,β-Met-ATP; read-out: h-P2X3 IC50.
On to `C=C(C)c1nnc2c3ncc(N4CCOCC4)cc3c(Cc3cc(OC)cc(OC)c3)nn12` [Example 120, 6-(3,5-dimethoxybenzyl)-8-(morpholin-4-yl)-3-(prop-1-en-2-yl)pyrido[2,3-d][1,2,4]triazolo[4,3-b]pyridazine], for which the IC50 was determined as 544 nM.

`CC(C)(C)c1nnc2c3ncc(Br)cc3c(Cc3ccc(Cl)cc3)nn12` [Example 112, 8-bromo-3-tert-butyl-6-(4-chlorobenzyl)pyrido[2,3-d][1,2,4]triazolo[4,3-b]pyridazine]: the IC50 amounted to 1440 nM.

For the compound `COc1ccc(Cc2nn3c(CC4CCOCC4)nnc3c3ncc(N4CCOCC4)cc23)cc1` [Example 125, 6-(4-methoxybenzyl)-8-(morpholin-4-yl)-3-(tetrahydro-2H-pyran-4-ylmethyl)pyrido[2,3-d][1,2,4]triazolo[4,3-b]pyridazine], the IC50 was found to be 538 nM.

With `COCC1CN(c2cnc3c(c2)c(Cc2ccc(Cl)cc2)nn2c(CC(C)C)nnc32)C1` [Example 128, 6-(4-chlorobenzyl)-8-[3-(methoxymethyl)azetidin-1-yl]-3-(2-methylpropyl)pyrido[2,3-d][1,2,4]triazolo[4,3-b]pyridazine], the IC50 came out at 576 nM.

With `CC(C)(C)c1nnc2c3ncc(N4CCOCC4)cc3c(Cc3ccc(Cl)cc3)nn12` [Example 111, 3-tert-butyl-6-(4-chlorobenzyl)-8-(morpholin-4-yl)pyrido[2,3-d][1,2,4]triazolo[4,3-b]pyridazine], the IC50 amounted to 102 nM.

For the compound `CC(C)(C)c1nnc2c3ncc(N4CCC(N)CC4)cc3c(Cc3ccc(Cl)cc3)nn12` [Example 139, 1-[5-tert-butyl-8-(4-chlorobenzyl)-3,4,6,7,13-pentazatricyclo[7.4.0.02,6]trideca-1(9),2,4,7,10,12-hexaen-11-yl]piperidin-4-amine], the IC50 was 379 nM.

Staying with this experiment, now noted: Table 9; human P2X3 receptor antagonist activity, CHO-K1 cells, α,β-Met-ATP; read-out: h-P2X3 IC50.
Turning to `CCC1CCN=C2c3ncc(N4CCOCC4)cc3N(Cc3cc(OC)cc(OC)c3)C(=O)N21` (centres unmarked) [Example 151, 5-(3,5-dimethoxybenzyl)-8-ethyl-3-(morpholin-4-yl)-5,8,9,10-tetrahydro-6H-pyrido[2,3-e]pyrimido[1,2-c]pyrimidin-6-one], the IC50 was 938 nM.

For the compound `CC1(C)CN=C2c3ncc(NCCO)cc3N(Cc3ccc(Cl)cc3)C(=O)N2C1` [Example 143, 5-(4-chlorobenzyl)-3-[(2-hydroxyethyl)amino]-9,9-dimethyl-5,8,9,10-tetrahydro-6H-pyrido[2,3-e]pyrimido[1,2-c]pyrimidin-6-one], the IC50 worked out at 2260 nM.

As to `CCC1CCN=C2c3ncc(N4CCOCC4)cc3N(Cc3ccc(Cl)cc3)C(=O)N21` (centres unmarked) [Example 155, 5-(4-chlorobenzyl)-8-ethyl-3-(morpholin-4-yl)-5,8,9,10-tetrahydro-6H-pyrido[2,3-e]pyrimido[1,2-c]pyrimidin-6-one], the IC50 stood at 2170 nM.

As to `CCN(CC)c1cnc2c(c1)N(Cc1ccc(OC)cc1)C(=O)N1C2=NC(=O)C1C(C)(C)C` (centres unmarked) [Example 165, 3-tert-butyl-8-(diethylamino)-6-(4-methoxybenzyl)imidazo[1,2-c]pyrido[2,3-e]pyrimidine-2,5(3H,6H)-dione], the IC50 is 702 nM.

For the compound `COc1ccc(Cn2c(=O)n3c(C4(C)CC4)nnc3c3ncc(N4CCOCC4)cc32)cc1` [Example 174, 6-(4-methoxybenzyl)-3-(1-methylcyclopropyl)-8-(morpholin-4-yl)pyrido[2,3-e][1,2,4]triazolo[4,3-c]pyrimidin-5(6H)-one], the IC50 was 78.5 nM.

Source of the values: patent US11999732B2, “P2X3 receptor antagonists” (RECORDATI INDUSTRIA CHIMICA E FARMACEUTICA SPA, priority 2018, dated 2024).
